From patent US20110071117A1, “COMBINATIONS OF ANTIOXIDANTS AND ANTI-INFLAMMATORY DRUGS IN THE TREATMENT OF INFLAMMATORY BOWEL DISEASE” (The Board of Regents of the University of Oklahoma, priority 2008, published 2011)

Key:
[1] = tested on: cytokine gene expression (IL-1A, IL-1B, 1L-04, IL-6 and TNFα); settings: similarly designed studies; cited from earlier work
[2] = tested on: TNBS colitis; assay: Macroscopic injury score of distal colon in TNBS colitis, rectal (enema) treatment; format: in vivo, Male Sprague Dawley rats; settings: 11 days after TNBS, 8 days of daily rectal treatment, mean±SEM, scale of Table 1, TNBS alone 5.9±0.6
Excerpt: (§1) Male Sprague Dawley rats weighing 200-250 grams were housed in the animal facility in cages containing contact bedding. Rats were deprived of food but not water for 24 hrs prior to the induction of colitis. Institutional approval for experimental protocols was provided by the research and animal care committees of the Research Services at the Oklahoma City Veterans Administration Medical Center.
(§2) Fasted animals were lightly anesthetized with isoflurane and then subjected to enema administration of TNBS and subsequently study drugs. The experimental protocol is similar to that previously described (20). The tip of polyethylene catheter was advanced transanally 8 cm to the distal colon and a single dose of TNBS (Sigma, St. Louis, Mo.), was instilled intraluminally (15 mg of TNBS dissolved in a 0.6 ml volume of 50% ethanol) to induce colitis. Following the administration of TNBS the animals were maintained in a head-down position for approximately 60 seconds to prevent leakage of the infusate.
Three days after TNBS dosing rats were randomly assigned to receive one of the following treatments by enema in a manner similar to that used for TNBS administration. […]
Inflammation was present if the mucosa was erythematous. […] Once macroscopic damage was assessed full thickness colonic tissue samples were taken from inflamed areas and processed for histology.

[3] = tested on: MPO activity; assay: Colonic inflammation by MPO assay in distal colon tissue, TNBS colitis; format: in vivo, Male Sprague Dawley rats; settings: 11 days after TNBS, 8 days of treatment; mean±SEM; TNBS colitis 703+130
Excerpt: Fasted animals were lightly anesthetized with isoflurane and then subjected to enema administration of TNBS and subsequently study drugs. The experimental protocol is similar to that previously described (20). The tip of polyethylene catheter was advanced […] 8 cm to the distal colon and a single dose of TNBS (Sigma, St. […] Following the administration of TNBS the animals were maintained in a head-down position for approximately 60 seconds to prevent leakage of the infusate. Three days after TNBS dosing rats were randomly assigned to receive one of the following treatments by enema in a manner similar to that used for TNBS administration. The TNBS treated animals received one of the following therapies 5-ASA (100 mg/kg) alone or 5-ASA in combination with one of the following: vitamin C (100 mg/kg), phenyl butylnitrone (PBN; 30 mg/kg) and vitamin E (a tocopherol; 50 mg/kg solubilized in DMSO). The doses of selected antioxidants were derived from the literature in which these agents had been used in experimental models of disease or IBD (19, 22, 23). Comparator groups included TNBS dosed rats that received 8 doses of rectal saline and saline treated controls. Rats were treated for 8 days and then sacrificed. MPO activity was measured in colonic tissue samples by colorimetric assay. […] The absorbance changes were read at 450 nm and recorded. Results are expressed as nanograms per gram of tissue. […]

[4] = tested on: TNBS colitis; assay: Microscopic (histological) injury of distal colon in TNBS colitis, rectal (enema) treatment; format: in vivo, Male Sprague Dawley rats
Excerpt: as §1, §2
Three days after TNBS dosing rats were randomly assigned to receive one of the following treatments by enema in a manner similar to that used for TNBS administration. The TNBS treated animals received one of the following therapies 5-ASA (100 mg/kg) alone or 5-ASA in combination with one of the following: vitamin C (100 mg/kg), phenyl butylnitrone (PBN; 30 mg/kg) and vitamin E (a tocopherol; 50 mg/kg solubilized in DMSO). The doses of selected antioxidants were derived from the literature in which these agents had been used in experimental models of disease or IBD (19, 22, 23). Comparator groups included TNBS dosed rats that received 8 doses of rectal saline and saline treated controls. Rats were treated for 8 days and then sacrificed.
Histological assessment was used to measure colonic injury. Colonic tissue samples taken from the distal colon were immersed in 10% phosphate buffered formalin and subsequently embedded in paraffin. Sections of 3 micron thickness were stained with hematoxylin and eosin. The slides were then evaluated by a pathologist for epithelial damage, architectural changes, polymorphonuclear leukocyte (PMN) infiltration, mononuclear cell infiltration, and ulceration. The microscopic features of colitis were graded on a 0-3 scale with 0 being normal and 3 representing severe or most intense abnormality. In addition to scoring individual features of colitis, an aggregate score of colitis for each rat was tabulated by adding together individual parameter scores, thus, providing a global assessment of colitis.

[5] = distal colonic specimen, 8 days of topical treatment begun 3 days after TNBS

Row | SMILES | cytokine gene expression elicited by TNBS [1] | macroscopic injury score [2] | MPO activity in the distal colon [3] | global microscopic injury score ([4]; distal colon, 11 days after TNBS, 8 days of daily rectal treatment, mean±SEM, sum of indices graded 0-3, TNBS alone 13.3±0.5) | inflammation in representative photomicrograph [4, 5] | mucosal ulceration in representative photomicrograph [4, 5] | reduction of global microscopic colitis vs TNBS ([4]; printed as reduction/decrease)
1 | CC(=O)N[C@@H](CS)C(=O)O [NAC, N-acetylcysteine] | did not achieve this degree of statistical distinction | – | – | – | – | – | –
2 | Nc1ccc(O)c(C(=O)O)c1 [5-ASA, 5-aminosalicylic acid] | did not achieve this degree of statistical distinction | 3.8±0.4 | 354±81 ng/gm | 9.1±1.0 | mild inflammation in the submucosa | an area of mucosal ulceration | 31%
